Tested on: IL-10
Test: Measurement of IL-10 increase rate (LPS-induced inflammation in mice, serum IL-10 by ELISA)
Type: in vivo
Conditions: Mus musculus, 2 h, oral 100 mg/kg in 0.5% methyl cellulose, LPS 0.4 mg/kg i.p. one hour later, serum taken one hour after LPS, % control ratio vs 0.5% methyl cellulose group, read-out: IL10 Increase Rate (%)
Procedure: A test substance was suspended in a 0.5% (w/v) methyl cellulose and orally administered to mice at a dose of 100 mg/kg. One hour later, a lipopolysaccharide (LPS, Sigma-Aldrich, L2630 (trade name)) (0.4 mg/kg) was intraperitoneally administered to induce inflammation. One hour after administration of LPS, blood was taken from the vena cava under anesthesia with isoflurane, placed in a tube containing a serum separating agent, allowed to stand still at room temperature for 20-30 minutes and centrifuged at 4° C. at 12,000 rpm for 5 minutes to obtain the serum. Thereafter, the amount of the IL-10 in the serum was measured by using Mouse IL-10 Quantikine ELISA Kit (R&D systems, M1000B (trade name)) or Mouse IL-10 Immunoassay kit (PerkinElmer, AL502 (trade name)) in accordance with the protocol of the kit. The serum was diluted 10 times with the dilution solution contained in the kit and put in use. IL-10 increase rate (% control ratio) of the compound was calculated in accordance with the following expression: IL-10 increase rate (% control ratio) (IL10 amount in compound administration group)×100/(IL-10 amount in 0.5% (w/v) methyl cellulose administration group)

| SMILES | response vs control in vivo at 100 mg/kg |
| --- | --- |
| CN(C)C12CCC(c3cn([C@H]4CC[C@H](c5nnc(COc6cccc(C(F)(F)F)c6)n5C)CC4)nn3)(CC1)OC2 [Example 9, N,N-Dimethyl-1-{1-[trans-4-(4-methyl-5-{[3-(trifluoromethyl)phenoxy]methyl}-4H-1,2,4-triazol-3-yl)cyclohexyl]-1H-1,2,3-triazol-4-yl}-2-oxabicyclo[2.2.2]octan-4-amine] | 182% |
| Cn1c(COc2cccc(Cl)c2)nnc1[C@H]1CC[C@H](c2cc([C@@H]3CC[C@@H](N4CCC4)CO3)on2)CC1 [Example 35, 3-(trans-4-{5-[(2S,5R)-5-(Azetidin-1-yl)tetrahydro-2H-pyran-2-yl]-1,2-oxazol-3-yl}cyclohexyl)-5-[(3-chlorophenoxy)methyl]-4-methyl-4H-1,2,4-triazole] | 184% |
| CC(C)c1cccc(OCc2nnc([C@H]3CC[C@H](n4cc(C5(F)CCN(C)CC5)nn4)CC3)n2C)c1 [Example 3, 4-Fluoro-1-methyl-4-{1-[trans-4-(4-methyl-5-{[3-(propan-2-yl)phenoxy]methyl}-4H-1,2,4-triazol-3-yl)cyclohexyl]-1H-1,2,3-triazol-4-yl}piperidine] | 179% |
| CC(C)c1cccc(OCc2nnc([C@@H]3CC[C@@H](n4cc(C5(F)CCN(C)CC5)nn4)CO3)n2C)c1 [Example 13, 4-Fluoro-1-methyl-4-{1-[(3R,6S)-6-(4-methyl-5-{[3-(propan-2-yl)phenoxy]methyl}-4H-1,2,4-triazol-3-yl)tetrahydro-2H-pyran-3-yl]-1H-1,2,3-triazol-4-yl}piperidine] | 156% |
| CC(C)c1cccc(O[C@H](C)c2nnc([C@H]3CC[C@H](n4cc([C@@H]5CC[C@@H](N(C)C)CO5)nn4)CC3)n2C)c1 [Example 8, (3R,6S)—N,N-Dimethyl-6-{1-[trans-4-(4-methyl-5-{(1R)-1-[3-(propan-2-yl)phenoxy]ethyl}-4H-1,2,4-triazol-3-yl)cyclohexyl]-1H-1,2,3-triazol-4-yl}tetrahydro-2H-pyran-3-amine] | 197% |
| CN1CCC(F)(c2cn([C@H]3CC[C@H](c4nnc5n4CCCC5Oc4cccc(C(F)(F)F)c4)CC3)nn2)CC1 (stereo partly drawn) [Example 15, 3-{trans-4-[4-(4-Fluoro-1-methylpiperidin-4-yl)-1H-1,2,3-triazol-1-yl]cyclohexyl}-8-[3-(trifluoromethyl)phenoxy]-5,6,7,8-tetrahydro[1,2,4]triazolo[4,3-a]pyridine] | 227% |
| CC(C)c1cccc(OCc2nnc(-c3ccc(-n4cc(C5CCN(C)CC5)nn4)cn3)n2C)c1 [Example 2, 5-[4-(1-Methylpiperidin-4-yl)-1H-1,2,3-triazol-1-yl]-2-(4-methyl-5-{[3-(propan-2-yl)phenoxy]methyl}-4H-1,2,4-triazol-3-yl)pyridine] | 220% |
| Cn1c(COc2cc(C(F)(F)F)ccn2)nnc1[C@H]1CC[C@H](c2cnn([C@H]3CC[C@H](N4CC5(CCO5)C4)CC3)c2)CC1 [Example 25, 6-[trans-4-(4-{trans-4-[4-Methyl-5-({[4-(trifluoromethyl)pyridin-2-yl]oxy}methyl)-4H-1,2,4-triazol-3-yl]cyclohexyl}-1H-pyrazol-1-yl)cyclohexyl]-1-oxa-6-azaspiro[3.3]heptane] | 216% |
| CN1CCC(c2cnn(-c3ccc(-c4nnc(COc5cccc(C(F)(F)F)c5)n4C)cc3)c2)CC1 [Example 16, 1-Methyl-4-{1-[4-(4-methyl-5-{[3-(trifluoromethyl)phenoxy]methyl}-4H-1,2,4-triazol-3-yl)phenyl]-1H-pyrazol-4-yl}piperidine] | 170% |
| CN(C)C12CC(c3cn([C@H]4CC[C@H](c5nnc(COc6cccc(C(F)(F)F)c6)n5C)CC4)nn3)(C1)C2 [Example 12, N,N-Dimethyl-3-{1-[trans-4-(4-methyl-5-{[3-(trifluoromethyl)phenoxy]methyl}-4H-1,2,4-triazol-3-yl)cyclohexyl]-1H-1,2,3-triazol-4-yl}bicyclo[1.1.1]pentan-1-amine] | 177% |
| CC(C)c1cccc(OCc2nnc([C@H]3CC[C@H](n4cc(-c5ccc([C@@H](C)N6CCC6)cc5)nn4)CC3)n2C)c1 [Example 6, 4-{4-[(1R)-1-(Azetidin-1-yl)ethyl]phenyl}-1-[trans-4-(4-methyl-5-{[3-(propan-2-yl)phenoxy]methyl}-4H-1,2,4-triazol-3-yl)cyclohexyl]-1H-1,2,3-triazole] | 243% |
| CC(C)c1cccc(CC2OCCn3c2nnc3[C@H]2CC[C@H](n3cc(C4(F)CCN(C)CC4)nn3)CC2)c1 (stereo partly drawn) [Example 14, 3-{trans-4-[4-(4-Fluoro-1-methylpiperidin-4-yl)-1H-1,2,3-triazol-1-yl]cyclohexyl}-8-[3-(propan-2-yl)benzyl]-5,6-dihydro-8H-[1,2,4]triazolo[3,4-c][1,4]oxazine] | 216% |
| Cn1c(COc2cccc(C(F)(F)F)c2)nnc1[C@H]1CC[C@H](c2cn([C@@H]3CC[C@@H](CN4CCC4)OC3)nn2)CC1 [Example 19, 1,5-Anhydro-6-azetidin-1-yl-2,3,4,6-tetradeoxy-2-{4-[trans-4-(4-methyl-5-{[3-(trifluoromethyl)phenoxy]methyl}-4H-1,2,4-triazol-3-yl)cyclohexyl]-1H-1,2,3-triazol-1-yl}-D-erythro-hexitol] | 227% |
| CC(C)c1cccc(O[C@@H](C)c2nnc(C34CCC(n5cc(-c6ccc([C@@H](C)N7CCC7)cc6)nn5)(CC3)CC4)n2C)c1 [Example 7, 4-{4-[(1R)-1-(Azetidin-1-yl)ethyl]phenyl}-1-[4-(4-methyl-5-{(1S)-1-[3-(propan-2-yl)phenoxy]ethyl}-4H-1,2,4-triazol-3-yl)bicyclo[2.2.2]oct-1-yl]-1H-1,2,3-triazole] | 113% |
| Cn1c(COc2cccc(C(F)(F)F)c2)nnc1[C@H]1CC[C@H](n2cc([C@H]3CC[C@H](N4CCC4)CC3)cn2)CC1 [Example 17, 3-(trans-4-{4-[trans-4-(Azetidin-1-yl)cyclohexyl]-1H-pyrazol-1-yl}cyclohexyl)-4-methyl-5-{[3-(trifluoromethyl)phenoxy]methyl}-4H-1,2,4-triazole] | 334% |
| Cn1c(COC2CCCC(C(F)(F)F)C2)nnc1[C@H]1CC[C@H](c2cnn([C@H]3CC[C@H](N4CC5(CCOC5)C4)CC3)c2)CC1 (stereo partly drawn) [Example 32, 2-[trans-4-(4-{trans-4-[4-Methyl-5-({[3-(trifluoromethyl)cyclohexyl]oxy}methyl)-4H-1,2,4-triazol-3-yl]cyclohexyl}-1H-pyrazol-1-yl)cyclohexyl]-6-oxa-2-azaspiro[3.4]octane] | 202% |
| Cn1c(COc2cccc(C(F)(F)F)c2)nnc1[C@H]1CC[C@H](n2cc(C34CCC(CN5CCC5)(CC3)CC4)nn2)CC1 [Example 10, 4-[4-(Azetidin-1-ylmethyl)bicyclo[2.2.2]oct-1-yl]-1-[trans-4-(4-methyl-5-{[3-(trifluoromethyl)phenoxy]methyl}-4H-1,2,4-triazol-3-yl)cyclohexyl]-1H-1,2,3-triazole] | 390% |
| CC(C)c1cccc(O[C@H](C)c2nnc([C@H]3CC[C@H](C4=NOC5(CCN(C)CC5)C4)CC3)n2C)c1 [Example 36, 8-Methyl-3-[trans-4-(4-methyl-5-{(1R)-1-[3-(propan-2-yl)phenoxy]ethyl}-4H-1,2,4-triazol-3-yl)cyclohexyl]-1-oxa-2,8-diazaspiro[4.5]dec-2-ene] | 230% |

— patent US12297187B2, “Compound having cyclic structure” (Daiichi Sankyo Company, Limited, priority 2017, dated 2025)
